According to patent US10293009B2, “Pharmaceutical or food composition comprising Oldenlandia brachypoda, Spergularia marina, Disporum smilacinum, Persicaria posumbu, or Geum aleppicum” (KOREA FOOD RESEARCH INSTITUTE, priority 2012, dated 2019):

Assays:
STC-1 cells [1] = assay: Change in Ca2+ level in STC-1 cells; assay type: cell-based
Protocol: (§1) The cells were inoculated onto a poly-D-Lysine-coated black 96-well clear-bottom plate (Thermo) at a concentration of 8.0×10^4 cells/well and incubated under the condition of 37° C. and 5% CO2. 72 hours later, the cells were incubated at 37° C. for 60 minutes using the Calcium-5 assay kit (Molecular Devices) and the change in Ca^2+ level was measured using Flexstation III. The change in Ca^2+ level was monitored for about 120 seconds at fluorescence wavelengths of 488 nm (ex) and 525 nm (em) and for 2 seconds after injecting the compound for 20 seconds.

RIN14B cells [2] = assay: Change in Ca2+ level in RIN14B cells after inhibitor pretreatment (RR, HC-030031); assay type: cell-based; details: 300 μM
Protocol: as §1, with “a” for “a poly-D-Lysine-coated”, “(Corning)” for “(Thermo)”, “5.0×10^4” for “8.0×10^4”, “48” for “72”
The RIN14B cells were pretreated for 60 minutes with 100 μM ruthenium red (RR) or with 50 μM HC-030031. […]

RIN14B cells [3] = assay: Change in Ca2+ level in RIN14B cells; assay type: cell-based
Protocol: as §1, with “a” for “a poly-D-Lysine-coated”, “(Corning)” for “(Thermo)”, “5.0×10^4” for “8.0×10^4”, “48” for “72”

RIN14B cells [4] = assay: 5-HT secretion in RIN14B cells (Serotonin EIA); assay type: cell-based; details: 300 μM, 60 minutes
Protocol: RIN14B cells were cultured in RPMI medium 1640 containing 10% fetal bovine serum (FBS) and 1% penicillin-streptomycin in an incubator maintained at 37° C. and 5% CO2.
(§2) The cultured cells were inoculated onto a 24-well plate at a concentration of 2×10^5 cells/well and incubated under the condition of 37° C. and 5% CO2. 72 hours later, the cells were washed 2 times with 5-HT assay buffer (HBSS, 0.1% BSA, 1.25 mM CaCl2, 2 μM fluoxetine, pH 7.4) and then incubated at 37° C. for 60 minutes after adding the test substance to the 5-HT assay buffer. After the incubation, the medium was centrifuged at 10,000 rpm for 10 minutes and the resultant supernatant was stored at −70° C. for use in analysis. A Serotonin (EIA) kit (Enzo Life Sciences) was used.

STC-1 cells [5] = assay: CCK secretion in STC-1 cells (EIA); assay type: cell-based; details: 60 minutes
Protocol: STC-1 cells were cultured in Dulbecco's modified Eagle's medium (DMEM) containing 10% fetal bovine serum (FBS) and 1% penicillin-streptomycin in an incubator maintained at 37° C. and 5% CO2. […] An enzyme immunoassay (EIA) kit (Phoenix Pharmaceuticals Inc., Belmont Calif.) was used.

STC-1 cells [6] = assay: Change in Ca2+ level in STC-1 cells after inhibitor pretreatment (RR, HC-030031, TPPO, U-73122); assay type: cell-based; details: 0.1 mM
Protocol: as §1
The STC-1 cells were pretreated for 60 minutes with 100 μM ruthenium red (RR) or with 50 μM HC-030031. Then, the cells were treated with 1 mg/mL of the extract.
The STC-1 cells were pretreated for 60 minutes with 400 μM TPPO or with 20 μM U-73122.
Then, the cells were treated with 1 mg/mL of the extract.
The STC-1 cells were pretreated for 60 minutes with 100 μM ruthenium red or with 50 μM HC-030031. Then, the cells were treated with 1 mg/mL of the extract.
The STC-1 cells were pretreated for 60 minutes with 400 μM TPPO or with 20 μM U-73122. Then, the cells were treated with 1 mg/mL of the extract.

STC-1 cells [7] = assay: CCK secretion in STC-1 cells after inhibitor pretreatment (RR, HC-030031, TPPO, U-73122); assay type: cell-based; details: 0.1 mM
Protocol: as §2, with “HEPES” for “5-HT assay”, “(4.5 mM KCl, 1.2” for “(HBSS, 0.1% BSA, 1.25”, “1.2 mM MgCl2, 10 mM glucose, 140 mM NaCl, 20 mM HEPES-Tris,” for “2 μM fluoxetine,”, “10000” for “10,000”, “An enzyme immunoassay” for “A Serotonin”, “(Phoenix Pharmaceuticals Inc., Belmont Calif.)” for “(Enzo Life Sciences)”
The STC-1 cells were pretreated for 30 minutes with 100 μM ruthenium red (RR) or with 50 μM HC-030031. After adding 50 μg/mL of the extract, the cells were incubated at 37° C. for 60 minutes.
The STC-1 cells were pretreated for 30 minutes with 100 μM ruthenium red (RR) or with 50 μM HC-030031. After adding 500 μg/mL of the extract, the cells were incubated at 37° C. for 60 minutes.
The STC-1 cells were pretreated for 30 minutes with 400 μM TPPO or with 20 μM U-73122.
After adding 500 μg/mL of the extract, the cells were incubated at 37° C. for 60 minutes.
The STC-1 cells were pretreated for 30 minutes with 100 μM ruthenium red (RR) or with 50 μM HC-030031. Then, the cells were incubated at 37° C. for 60 minutes after adding 500 μg/mL of the extract.
Then, the cells were incubated at 37° C. for 60 minutes after adding 500 μg/mL of the extract.

RIN14B cells [8] = assay: 5-HT secretion in RIN14B cells after inhibitor pretreatment (RR, HC-030031); assay type: cell-based; details: 300 μM
Protocol: as §2
The RIN14B cells were pretreated for 30 minutes with 100 μM ruthenium red (RR) or with 50 μM HC-030031. […]

STC-1 cells [9] = assay: Membrane potential change in STC-1 cells; assay type: cell-based
NCI-H716 cells = assay: Intracellular cAMP in NCI-H716 cells (EIA); assay type: cell-based, Human; details: 20 μM
Protocol: The NCI-H716 cells were plated onto a 24-well culture plate at a concentration of 1×10^6 cells/mL and cultured for 3 days. On the day of the experiment, the cells were incubated with the sample in KRB buffer at 37° C. using a 5% CO2 incubator. After the incubation, the medium was removed and the cells were washed 3 times with KRB buffer. They were then incubated at 150 rpm at room temperature for 20 minutes after adding 0.5 mL of 0.1 N HCl. The incubated cells were then centrifuged at 1000 g for 10 minutes and the supernatant was analyzed by an enzyme immunoassay (EIA) using the cyclic AMP kit.

GPR119 = biological target: T1, GPR119 (Homo sapiens, UniProt Q8TDV5); assay: GLP-1 secretion in NCI-H716 cells treated with GPR119 siRNA; assay type: cell-based
T1 construct: The transfection of the cells with GPR119 siRNA leads to knockdown of the GPR119 gene; endogenous in cells; host or cells: NCI-H716 cells
T1 sequence (Q8TDV5 1-335): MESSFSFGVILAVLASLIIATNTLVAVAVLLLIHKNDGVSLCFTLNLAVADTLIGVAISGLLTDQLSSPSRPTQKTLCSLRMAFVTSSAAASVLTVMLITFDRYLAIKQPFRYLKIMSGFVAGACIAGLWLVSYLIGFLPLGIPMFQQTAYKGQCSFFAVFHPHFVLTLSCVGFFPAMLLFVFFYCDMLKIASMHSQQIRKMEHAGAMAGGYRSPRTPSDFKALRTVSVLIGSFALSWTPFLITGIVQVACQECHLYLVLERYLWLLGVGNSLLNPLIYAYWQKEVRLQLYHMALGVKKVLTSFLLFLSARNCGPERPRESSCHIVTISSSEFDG
Protocol: The NCI-H716 cells were cultured on a 96-well plate for 3 days to a concentration of 2×10^5 cells/mL. On the day of the experiment, the cells were washed with phosphate-buffered saline (PBS) and incubated at 37° C. for 1 hour in Krebs-Ringer bicarbonate buffer (KRB, 128.8 mmol/L NaCl, 4.8 mmol/L KCl, 1.2 mmol/L KH2PO4, 1.2 mmol/L MgSO4, 2.5 mmol/L CaCl2, 5 mmol/L NaHCO3, 10 mmol/L HEPES, 0.2% BSA, pH 7.4) to which the sample was added. Then, for GLP-1 assay, the supernatant (100 μL) was taken and analyzed using an active GLP-1 ELISA kit (EGLP-35K, Millipore). The concentration of GLP-1 was calculated GLP-1 standard (pmol/mL) and the result was expressed as fold of control by comparing the concentration of GLP-1 secreted by stimulation with the sample and the concentration of GLP-1 secreted by stimulation with a control substance.
siRNA sequence targeting human α-gustducin (GNAT3, accession no. NM 001102386, Dharmacon on-target SMARTpool siRNA reagent), GPR119 ([…]/GeneBank accession no. NM_176817) and non-target SMARTpool siRNA were purchased from Dharmacon (Lafayette, Colo.). The NCI-H716 cells were transfected with the siRNAs for 48 hours using the Neon™ transfection system (Invitrogen, Carlsbad, Calif.). Then, GLP-1 secretion and the concentrations of Ca^2+ and cAMP were measured.

C=CCN=C=S [AITC]
Change in Ca^2+ level, ΔRFU (mean ± S.E.M.) (STC-1 cells [1]; 0.1 mM): 105.41 ± 2.12 ΔRFU | Change in Ca^2+ level, ΔRFU (mean ± S.E.M.) (STC-1 cells [1]; 1 mM): 151.04 ± 5.65 ΔRFU | Change in Ca^2+ level, ΔRFU (mean ± S.E.M.) (STC-1 cells [1]; 10 mM): 168.68 ± 5.79 ΔRFU | Inhibition (%) of Ca^2+ change (RIN14B cells [2]; HC-030031 50 μM): 70.31% | Inhibition (%) of Ca^2+ change (RIN14B cells [2]; RR 100 μM): 66.36% | Change in Ca^2+ level, ΔRFU (mean ± S.E.M.) (RIN14B cells [2]; inhibitor: Untreated): 13.42 ± 1.08 ΔRFU | Change in Ca^2+ level, ΔRFU (mean ± S.E.M.) (RIN14B cells [2]; pretreated 50 μM HC-030031): 3.98 ± 0.80 ΔRFU | Change in Ca^2+ level, ΔRFU (mean ± S.E.M.) (RIN14B cells [2]; pretreated 100 μM RR): 4.51 ± 1.40 ΔRFU | Change in Ca^2+ level, ΔRFU (mean ± S.E.M.) (RIN14B cells [3]; 50 μM): 13.44 ± 1.78 ΔRFU | Change in Ca^2+ level, ΔRFU (mean ± S.E.M.) (RIN14B cells [3]; 300 μM): 19.78 ± 4.08 ΔRFU | Change in Ca^2+ level, ΔRFU (mean ± S.E.M.) (RIN14B cells [3]; 500 μM): 22.17 ± 3.65 ΔRFU | 5-HT secretion, Fold of control (mean ± S.E.M.) (RIN14B cells [4]): 8.11 ± 2.70 Fold of control | CCK secretion, Fold of control (mean ± S.E.M.) (STC-1 cells [5]; 0.1 mM): 21.57 ± 0.59 Fold of control | CCK secretion, Fold of control (mean ± S.E.M.) (STC-1 cells [5]; 1 mM): 21.99 ± 0.64 Fold of control | CCK secretion, Fold of control (mean ± S.E.M.) (STC-1 cells [5]; 10 mM): 25.59 ± 0.59 Fold of control | Inhibition (%) of Ca^2+ change (STC-1 cells [6]; HC-030031 50 μM): 83.50% | Inhibition (%) of Ca^2+ change (STC-1 cells [6]; RR 100 μM): 93.14% | Change in Ca^2+ level, ΔRFU (mean ± S.E.M.) (STC-1 cells [6]; inhibitor: Untreated): 400.52 ± 6.90 ΔRFU | Change in Ca^2+ level, ΔRFU (mean ± S.E.M.) (STC-1 cells [6]; pretreated 50 μM HC-030031): 66.07 ± 2.56 ΔRFU | Change in Ca^2+ level, ΔRFU (mean ± S.E.M.) (STC-1 cells [6]; pretreated 100 μM RR): 27.47 ± 1.77 ΔRFU | Inhibition (%) of CCK secretion (STC-1 cells [7]; HC-030031 50 μM): 52.58% | Inhibition (%) of CCK secretion (STC-1 cells [7]; RR 100 μM): 73.21% | CCK secretion, Fold of control (mean ± S.E.M.) (STC-1 cells [7]; inhibitor: Untreated): 22.56 ± 0.65 Fold of control | CCK secretion, Fold of control (mean ± S.E.M.) (STC-1 cells [7]; pretreated 50 μM HC-030031): 10.70 ± 0.92 Fold of control | CCK secretion, Fold of control (mean ± S.E.M.) (STC-1 cells [7]; pretreated 100 μM RR): 6.04 ± 0.73 Fold of control | Inhibition (%) of 5-HT secretion (RIN14B cells [8]; HC-030031 50 μM): −11.27% | Inhibition (%) of 5-HT secretion (RIN14B cells [8]; RR 100 μM): 55.56% | 5-HT secretion, Fold of control (mean ± S.E.M.) (RIN14B cells [8]; inhibitor: Untreated): 8.11 ± 2.70 Fold of control | 5-HT secretion, Fold of control (mean ± S.E.M.) (RIN14B cells [8]; pretreated 50 μM HC-030031): 9.02 ± 6.37 Fold of control | 5-HT secretion, Fold of control (mean ± S.E.M.) (RIN14B cells [8]; pretreated 100 μM RR): 3.60 ± 1.80 Fold of control

[Cl-].[K+] [KCl]
Membrane potential change, ΔRFU (mean ± SEM) (STC-1 cells [9]; 0.1 mM): 17.01 ± 0.93 ΔRFU | Membrane potential change, ΔRFU (mean ± SEM) (STC-1 cells [9]; 1 mM): 35.08 ± 3.43 ΔRFU | Membrane potential change, ΔRFU (mean ± SEM) (STC-1 cells [9]; 10 mM): 270.08 ± 9.57 ΔRFU

CCCCCCCC/C=C\CCCCCCCC(=O)NCCO [OEA (oleoylethanolamide), oleoylethanolamide]
cAMP (fold of control) (NCI-H716 cells): 6.813 ± 1.634 fold of control | GLP-1 secretion (fold of control) GPR119 siRNA (GPR119; 20 μM, GPR119 siRNA): 2.975 ± 0.241 fold of control | GLP-1 secretion (fold of control) Control siRNA (GPR119; 20 μM, control siRNA): 4.822 ± 0.358 fold of control | inhibition at 20 µM (GPR119; NCI-H716): 38.3%
